# Test results taken from patent US12410237B2, “Methods for purifying proteins having a tubulin carboxypeptidase activity and peptidic based inhibitors thereof” (CENTRE NATIONAL DE LA RECHERCHE SCIENTIFIQUE, priority 2017, dated 2025).
# “Also recorded” adds a separate entry of the source.
# Key:
# [1] = system: native TCPase activity in brain MAPs; assay: detyrosination assay with 3H-tyrosine labelled microtubules and isolated brain MAPs; type: biochemical, pig; conditions: for inhibition of TCP activity in the MAPs fraction by peptides (in words): brain-derived MAPs, FIG. 11A; for inhibition of native TCPase activity in brain MAPs (in words): protease inhibitor treatment of brain MAPs, FIG. 5
# Experimental: An assay involving radioactively labelled tyrosine (^3H—Y) was used to quantitatively determine the TCPase activity. Brain tubulin was isolated and purified and radioactively labelled with *Y by recombinant TTL. To do so, recombinant bacterially expressed purified TTL (>90% purity) was put in contact with micrograms of pig brain purified tubulin. The reaction sample was incubated for one hour at 37° C. in presence of radioactively labelled ^3H—Y and ATP. Following incorporation of ^3H—Y to tubulin, a polymerization cycle was performed by adding GTP and incubating for 30 min at 37° C. Next the samples are centrifuged and the obtained pellet was washed twice with PEM buffer. The resulting radioactively labelled MTs were store at −80° C. until further testing. […] After obtaining both purified recombinant TCPase candidate and radioactively labelled MTs, the proteins were put into contact and various amounts of TCPase were presented to MTs. Removal of the radioactive tyrosine by the candidate detyrosinase was measured by quantification of radioactivity in both the soluble and insoluble fraction of the reaction using a liquid scintillator counter.
# To further gain insights in the potential protease that could embody the TCPase activity, the isolated MAPs from crude brain extracts were exposed to a selection of specific Cysteine, Aspartic, Metallo and Serine proteinase inhibitors were tested on the extract.
# Recombinant bacterially expressed purified TTL (>90% purity) was put in contact with micrograms of pig brain purified tubulin. The reaction sample was incubated for one hour at 37° C. in presence of radioactively labeled ^3H—Y and ATP. Following incorporation of ^3H—Y to tubulin, a polymerization cycle was performed by adding GTP and incubating for 30 min at 37° C. Next, the samples were centrifuged and the obtained pellet was washed twice with PEM buffer. The resulting radioactively labeled MTs were store at −80° C. until further testing. The isolated MAPs from crude brain extracts (as obtained in example 1) were contacted to the radioactively labeled MTs in absence or presence of different peptidic inhibitors or an increasing concentration of peptidic inhibitor. Release of radioactive tyrosine by native TCPase containing brain MAPs was measured by quantification of radioactivity in both the soluble and insoluble fraction of the reaction using a liquid scintillator counter.
# [2] = system: C2C12 cells; assay: C2C12 myogenic differentiation, immunoblot of tubulin detyrosination and acetylation; type: cell-based, mouse; conditions: C2C12 myogenic differentiation time-course, FIG. 12
# Experimental: C2C12 cells is an immortal cell line of mouse skeletal myoblasts originally derived from satellite cells from the thigh muscle cells. C2C12 cells were routinely grown at 37° C. in a CO2 incubator. Myogenic differentiation is initiated upon reaching confluence by switching the cells to medium containing 2% horse serum. Cells were collected at start of the myogenic differentiation and every two days over a period of 6 days for molecular analysis.
# To further study the use of a TCPase inhibitor, C2C12 cells were treated with or without EEY peptide (FIG. 12). The protein expression of Myosin was monitored by western blotting as control for muscle differentiation. Vinculin acts as loading control. Acetylation and detyrosination of the microtubules was assessed. Whereas acetylation increases during differentiation (Ac-Tubulin) no difference in the status could be observed in the treated cells.
inhibition of TCP activity in the MAPs fraction by peptides (in words) [1],Compound,acetylation of the microtubules (Ac-Tubulin) [2],tubulin detyrosination levels (Δ1-tubulin) [2],inhibition of native TCPase activity in brain MAPs (in words) [1]
almost fully inhibited,"EEY: tripeptide EEY inspired by the C-terminal sequence of alpha-tubulin, TCP inhibitor",no difference,clearly inhibited detyrosination; also recorded: decrease,
,"CC(C)C[C@H](NC(=O)[C@H]1O[C@@H]1C(=O)O)C(=O)NCCCCN=C(N)N [E64, reference compound]",,,complete inhibition
,"NC(=O)CI [Iodoacetamide, reference compound]",,,complete inhibition
partially blocked,EDY: three amino acid peptide EDY inspired by the C-terminal sequence of tubulin,,,
